The values below come from patent publication US20210338699A1 (priority 2018, published 2021).

One data set deals with ROCK. As to conditions: cited from earlier work.
The test system of a further data set is cells expressing BCR-ABL. In words: Proliferation by [3H] thymidine incorporation, BCR-ABL cells. It is filed as cell-based. Particulars: absence of growth factors, 48 hours. The procedure: (§1) FIG. 9A. […] After 48 hours, proliferation was evaluated by [^3H] thymidine incorporation.
FIG. 12A. Graph illustrating the effect of ROCK inhibitor (H-1152) alone or in combination with imatinib on proliferation of myeloid cells expressing BCR-ABL.
(§2) In order to illustrate the imatinib resistance, very high dose of imatinib were used in these cells.
Referring now to FIG. 11, primary CML patient derived cells were examined and a human cell line bearing BCR-ABL (K562) was used as a positive control.
Background: Dividing cells build labelled thymidine or BrdU into new DNA.

Data set [1] has as its system cells expressing FLT3-ITD (FLT3N51). The data set can be described thus: Proliferation by [3H] thymidine incorporation, FLT3-ITD cells. The data set is classed as cell-based. Particulars: absence of growth factors, 48 hours. As to the method: as §1, §2
Data set [2] concerns fibroblasts from WT and ROCK1^−/− mice. The data set can be described thus: Ponatinib treatment of WT and ROCK1−/− fibroblasts. It is filed as cell-based.
In a further data set the test system is WT and ROCK1^−/− mice. In words: Serial doxorubicin administration, DOX-induced CTX in WT and ROCK1−/− mice. As to the method:
FIG. 1A. Schematic diagram representing serial doxorubicin administration protocol. WT and ROCK1^−/− mice received three serial injections weekly of normal saline (NS) or doxorubicin (DOX) (8 mg/kg). […]
The generation of ROCK1 deficient mice have been previously reported. […] To assess if a deficiency of ROCK1 protects the mice from DOX induced CTX, control (WT) and ROCK1^−/− mice were injected with 8 mg/kg of DOX or normal saline (NS) once weekly for 3 consecutive weeks, for a cumulative dose of 24 mg/kg (FIG. 1A). This treatment is based on the previously described approach, which causes progressive cardiac dysfunction within three weeks after the initial injection, a scenario that mimics early-onset of DOX-induced CTX in humans.
To elucidate the role of ROCK1 in DOX induced CTX, ROCK1^−/− mice were treated with DOX in parallel to the WT mice.
During autophagy, the cytosolic form of microtubule-associated protein 1 light chain 3 (LC3-I) is conjugated to phosphatidylethanolamine to form LC3-II, which is recruited to autophagosomal membranes.

In data set [3] the test system is MHC-Cre/ROCK1^fl/fl and ROCK1^fl/fl mice. In words: DOX-induced CTX in cardiomyocyte-specific ROCK1 knockout mice. The data set is classed as in vivo. As to conditions: three weekly injections 8 mg/kg, day 21. As to the method: FIG. 7A. Graph illustrating the percent fractional shortening (FS) of cardiomyocyte-specific ROCK1 knockout mice (MHC-Cre/ROCKfl/fl) and ROCK1fl/fl mice (8-9 weeks old) after receiving three serial injections weekly of NS or DOX (8 mg/kg). Cardiac function was measured by echocardiography analysis on day 21 after the initial injection.
FIG. 7B. Graph illustrating total TUNEL positive nuclei per 10^5 total nuclei in ventricular myocardium from MHC-Cre/ROCK^fl/fl and ROCK1^fl/fl mice hearts on day 21. N=4-6 in each group.
FIG. 7C. Representative heart sections stained with picrosirius red/Fast green illustrating the collagen deposition in ventricular myocardium of MHC-Cre/ROCK^fl/fl and ROCK1^fl/fl mice hearts on day 21. N=4-6 in each group.
To determine if ROCK1 in cardiomyocytes has a role in DOX-induced CTX, cardiomyocyte-specific ROCK1 knockout mice were generated. In myosin heavy chain (MHC)-Cre/ROCK1^fl/fl mice, the ROCK1 protein is truncated only in cardiomyocytes from residue 137 to the end of the protein (FIGS. 6A, 6B). Similar to ROCK1^−/− mice in which the ROCK1 protein is also truncated from residue 180 to the end of the protein in all cells, the conditional targeting approach results in the removal of a large portion of the kinase domain and amino acids from the coiled-coil and the PH domains. […]

The subject of the next data set is AML mice. The text has this:
Three different sources of donor cells will be utilized: 1) WT LSK cells; 2) Tet2^−/−FLT3^ITD/+ LSK cells; and 3) Dnmt3a^−/−FLT3^ITD/+ LSK cells. Lethally irradiated CD45.1^+ (BoyJ) recipient mice of the above described 5 genotypes will be transplanted with CD45.2^+WT, Tet2^−/−FLT3^ITD/+ or Dnmt3a^−/−FLT3^TID/+ leukemic cells along with CD45.1^+ normal cells in 1:1 ratio pooled from 2-3 mice of either gender at 4 months of age. 2 months posttransplant, the development of AML in these mice will be assessed by analysing peripheral blood. Mice will be randomly assigned into two groups: 1) vehicle; and 2) intraperitoneal injection (IP) of DOX 8 mg/kg/week for 3 weeks. This treatment is based on the previously described approach. […] Alternatively, mice will be subjected to 5 IP injections of DOX (5 mg/Kg) with one-week intervals for a cumulative dose of 25 mg/kg over a period of 5 weeks. […] Relapse of these mice will be monitored closely and DOX will be re-administered and then be compared for CTX.

Data set [4] has as its system cancer patients including AML patients. Particulars: within 9 years of DOX treatment; cited from earlier work.
In the next data set the test system is leukemic mice. The data set can be described thus: Survival of leukemic mice treated with ROCK inhibitors. It is filed as in vivo. The source says:
Increased ROCK activity is associated with cardiovascular disease (CVD).

Data set [5] deals with blood vessel permeability. Particulars: mouse, in vivo; cited from earlier work.

The structures appear in SMILES notation. Like-named read-outs stand apart in the source and are kept apart here.

Take `CC(C)c1c(C(=O)Nc2ccccc2)c(-c2ccccc2)c(-c2ccc(F)cc2)n1CC[C@@H](O)C[C@@H](O)CC(=O)O` [atorvastatin]: the ROCK activity result with ROCK (patients with atherosclerosis) was “inhibits ROCK activity”.

On to `C[C@@H](N)[C@H]1CC[C@H](C(=O)Nc2ccncc2)CC1` [Y27632], for which the “constitutive growth (thymidine incorporation)” value (in the data set on cells expressing BCR-ABL; in [1]) was “similarly repress the growth” throughout.

Regarding `Cc1ccc(C(=O)Nc2ccc(CN3CCN(C)CC3)c(C(F)(F)F)c2)cc1C#Cc1cnc2cccnn12` [ponatinib], in data set [2] (ROCK1−/− cells), the cell survival entry is on record as “enhanced survival”. Further, in data set [2] (ROCK1−/− cells), the “cleaved caspase 3/8 levels” value was “profound decrease”. For the same molecule, the “ponatinib induced cell shape changes” value was “not the case” in data set [2] (ROCK1−/− fibroblasts) and “significant changes” in data set [2] (WT fibroblasts, increasing doses). The “cleaved caspase 8/3 levels” value in [2] (WT fibroblasts) is listed as “profound increase”.

`COc1cccc2c1C(=O)c1c(O)c3c(c(O)c1C2=O)C[C@@](O)(C(=O)CO)C[C@@H]3O[C@H]1C[C@H](N)[C@H](O)[C@H](C)O1` [DOX, doxorubicin] showed a mortality rate in the data set on WT and ROCK1^−/− mice (ROCK1 deficient mice, at 3 months) of 55%. Further, the mortality rate in the data set on WT and ROCK1^−/− mice (ROCK1 deficient mice, at 6 months) turned out to be 70%. In the data set with WT and ROCK1^−/− mice (ROCK1−/− mice, over 6 weeks after initial DOX injection), the mortality rate result is given as “about 10%”. In addition, in the data set with WT and ROCK1^−/− mice (WT mice), the “death of all treated mice” value was “died within 3 months”. Besides, the mortality rate result in the data set on WT and ROCK1^−/− mice (WT mice, over 6 weeks after initial DOX injection) is “about 70%”. In the data set with WT and ROCK1^−/− mice (mouse, in vivo), the Bax levels entry was “increased”, the “autophagosomes by transmission electron microscopy” value was “more accumulation of autophagosomes”, the body weight result is “significant impact” and the cardiac fibrosis entry is reported as “increased”. Also, in the data set with WT and ROCK1^−/− mice (mouse, in vivo), the cardiac function entry is “preserved”; the “cardiac function (percent fractional shortening)” value is listed as “impaired”; the cardiomyocyte size result is reported as “significant impact”; the “characteristics of DOX-induced CTX (TUNEL, Bax translocation, fibrosis)” value is reported as “effectively blocked”. Also, in the data set on WT and ROCK1^−/− mice (mouse, in vivo), the heart weight result was “significant impact”, the “mitochondrial translocation of Bax” value is listed as “increased” and the “number of TUNEL positive cardiac cells” value is “significantly increased”. Moreover, in the data set with WT and ROCK1^−/− mice (mouse, in vivo, 8 mg/kg), the “DOX-induced LV dilation” value is reported as “blocked”; the “LV contractile function (LV fractional shortening, FS)” value is on record as “reduced”; the “left ventricular (LV) dilation (LVESD, LVEDD) by echocardiogram” value is “reproducible and progressive left ventricular (LV) dilation”. For the same molecule, the “cardiotoxic events (cardiac dysfunction, TUNEL positivity, cardiac fibrosis)” value in data set [3] (MHC-Cre/ROCK1fl/fl mice) is recorded as “significantly reduced”. The “cardiotoxic events (cardiac dysfunction, TUNEL positivity, cardiac fibrosis)” value in data set [3] (ROCK1fl/fl hearts) is “induced cardiac dysfunction, increased TUNEL positivity and cardiac fibrosis”. Further, the AML response result in the data set with AML mice (IP 8 mg/kg/week for 3 weeks) is “complete remission of AML”. In addition, the CTX result in the data set with AML mice (mouse, in vivo, ip, 8 mg/kg) is reported as “severe CTX including dysfunction”. In addition, in data set [4], the “patients with clinical or sub-clinical manifestation of heart failure” value is recorded as 6-18%.

With `O=S(=O)(c1cccc2cnccc12)N1CCCNCC1` [Fasudil], the “constitutive growth (thymidine incorporation)” value (in the data set with cells expressing BCR-ABL; in data set [1]) was “similarly repress the growth” throughout. Moreover, the “survival of leukemic mice” value in the data set on leukemic mice (compared to vehicle treated) is recorded as “significant enhancement in survival”. Also, the anti-leukemic activity entry with leukemic mice (in vivo models of AML) is given as “potent anti-leukemic activity”.

As for `[N]=O` [NO, nitric oxide], the ROCK activity entry in the data set on ROCK (patients with CVD, exogenous NO) is reported as “inhibits ROCK activity”.

On to `Cc1nc(Nc2ncc(C(=O)Nc3c(C)cccc3Cl)s2)cc(N2CCN(CCO)CC2)n1` [dasatinib], for which, in data set [5], the “amount of Evans Blue in the small intestine” value is given as “significantly increases”.
